{
  "source": "patent US20110301116A1",
  "about": "“NSAIDS-INDUCED GASTROINTESTINAL MUCOSAL DISORDER ALLEVIATOR AND MANUFACTURING METHOD THEREOF” (THE UNIVERSITY OF TOKYO, priority 2008, published 2011)",
  "key": {"[1]": {"system": "stomach ulcer model induced by NSAIDs", "assay": "Stomach ulcer induced by NSAIDs in rats, lyophilized NSAID and trehalose vs NSAID alone (Working Example 1)", "assay_type": "in vivo, rat", "details": "trehalose 800 mg/kg, oral, 5 hours, average±standard deviation", "description": "Each of the test substances were adjusted by suspending or dissolving them into 0.5% CMC.Na solution. Each of 9 mL of Liquid doses was given per 1 kg weight by oral dose. 0.5% CMC.Na solutions were given to control group.\n(§1) We bought Winster male rats (Japan SLC) that were 8 weeks old. We breed these rats keeping 20 to 26 degrees C., humidity of 30 to 70%, housing 2 to 3 rats in a rat breeding gage (mouse and rat breeding CE-2), giving enough amount of filtered tap water. After breeding 7 days, 5 to 10 rats per group were picked to execute the example. The rats were fasting for 24 hours without giving no food and then the rats were fed no food and no water for 1 hour just before the examination.\nFrom 11 am on the previous day of the examination date, the rats were kept fasting and test substances were fed though mouse. After 5 hours passed, these rats were killed by carbon dioxide gas and stomachs were picked up. The duodenums were tagged. 6 mL of neutral formalin was poured from the esophagi so as to fix the stomachs for 30 minutes. The stomachs were cut along with the greater curvature. The cut stomachs were gently washed by saline, the presence of blood spot were observed by a stereoscopic microscope. The area of blood spots was measured by 0.5 mm×0.5 mm unit as an index of ulcer and the sum of each animal was calculated. The rate of suppressed ulcer was calculated, using the ulcer index for the group in which each of test sample was given and the group in which trehalose was also given, in accordance with the following equation.\n(§2) Rate of suppressed ulcer(%)=[1−A/B]×100 • […]"}, "[2]": {"system": "gastric mucosal disorder (ulcer) induced by NSAIDs", "assay": "Gastric mucosal disorder in rats: NSAID alone, mixture with trehalose, lyophilized with trehalose (Working Example 2)", "assay_type": "in vivo", "details": "rat, oral, 5 hours, trehalose 800 mg/kg", "description": "The liquid doses were prepared on the date when the examination was executed. Weighted NSAIDs were suspended or dissolved into 0.5% CMC.Na solution to prepare doses of administrating NSAIDs only. Suspension of NSAIDs and solution of trehalose were prepared. […] For each groups the amount of dose was 8 mL per kg or rat.\nas §1\nFrom 11 am on the previous day of the examination date, the rats were kept fasting and test substances were fed though mouse. After 5 hours passed, these rats were killed by carbon dioxide gas and stomachs were picked up. The duodenums were tagged. 6 mL of neutral formalin were poured from the esophagi so as to fix the stomachs for 30 minutes. The stomachs were cut along with the greater curvature. The cut stomachs were gently washed by saline, the presence of blood spot were observed by a stereoscopic microscope.\nThe area of blood spots was measured by 0.5 mm×0.5 mm unit as an index of ulcer and the sum of each animals was calculated. The rate of suppressed ulcer was calculated, using the ulcer index for the group in which each of test samples were given and the group in which trehalose was also given, in accordance with the following equation.\nas §2"}},
  "data": [
    {"smiles": "CC(=O)Oc1ccccc1C(=O)O", "note": "[Aspirin alone, aspirin]", "values": [
      {"measurement": "ulcer (area of blood spots, ulcer index)", "setting": "[1]; stomach ulcer model induced by aspirin, aspirin 200 mg/kg", "result": "10.40±2.80", "unit": "mm^2"},
      {"measurement": "Ulcer index (mm^2, average ± standard deviation)", "setting": "[2]; aspirin 200 mg/kg", "result": "10.40 ± 2.73", "unit": "mm^2"},
      {"measurement": "Ulcer index (mm^2, average ± standard deviation)", "setting": "[2]; aspirin 200 mg/kg, listed as aspirin alone", "result": "10.40±2.73", "unit": "mm^2"}
    ]},
    {"smiles": "O=C(O)Cc1ccccc1Nc1c(Cl)cccc1Cl", "note": "[Diclofenac alone, sodium diclofenac]", "values": [
      {"measurement": "ulcer (area of blood spots, ulcer index)", "setting": "[1]; stomach ulcer model induced by diclofenac, diclofenac 40 mg/kg", "result": "4.30±0.71", "unit": "mm^2"},
      {"measurement": "Ulcer index (mm^2, average ± standard deviation)", "setting": "[2]; diclofenac 40 mg/kg", "result": "4.30 ± 0.71", "unit": "mm^2"},
      {"measurement": "Ulcer index (mm^2, average ± standard deviation)", "setting": "[2]; diclofenac 40 mg/kg, listed as diclofenac alone", "result": "4.30±0.71", "unit": "mm^2"}
    ]},
    {"smiles": "COc1ccc2c(c1)c(CC(=O)O)c(C)n2C(=O)c1ccc(Cl)cc1", "note": "[Indomethacin alone, indomethacin]", "values": [
      {"measurement": "ulcer (area of blood spots, ulcer index)", "setting": "[1]; stomach ulcer model induced by indomethacin, indomethacin 30 mg/kg", "result": "4.83±0.90", "unit": "mm^2"},
      {"measurement": "Ulcer index (mm^2, average ± standard deviation)", "setting": "[2]; indomethacin 30 mg/kg", "result": "4.83 ± 0.90", "unit": "mm^2"},
      {"measurement": "Ulcer index (mm^2, average ± standard deviation)", "setting": "[2]; indomethacin 30 mg/kg, listed as indomethacin alone", "result": "4.83±0.90", "unit": "mm^2"}
    ]},
    {"smiles": "CC(C)Cc1ccc(C(C)C(=O)O)cc1", "note": "(stereo not shown) [ibuprofen alone, ibuprofen]", "values": [
      {"measurement": "ulcer (area of blood spots, ulcer index)", "setting": "[1]; stomach ulcer model induced by ibuprofen, ibuprofen 400 mg/kg", "result": "5.35±1.86", "unit": "mm^2"}
    ]}
  ]
}
